From patent publication US20250189514A1 (priority 2022, published 2025)
Like-named read-outs stand apart in the source and are kept apart here. Where no end group is shown, it is not given here.

Experiments:
α6/3β2β3 nAChR [1] = assay type: cell-based, human
α6/3β2β3 nAChR [2] = system: α6/3β2β3 nAChR
Description: In one embodiment, FLIPR assay is used to identify agonists of 6β2β3 nAChR (including chimeric α6/3β2β3 nAChR as described above) mediated calcium flux. In this assay, the recombinant cells are incubated with a calcium sensitive dye (such as Ca5), exposed to a test compound, and calcium flux is imaged by FLIPR^TETRA.
• Spin down cells at 300×G for 5 min, aspirate supernatant, and resuspend in 10 ml plating medium. • Seed 25,000 cells/well in 50 μL (5×10^5cells/mL). • Incubate plates for 24 hours at 30° C. with 5% CO2 in a humidified atmosphere. Day 4 FLPR Assay • Wash plate with plate washer (4 washes x 100 μL/wash) using compound dilution buffer, leaving 25 μl in each well. • Add 25 μl of 2× Ca5 dye to each well. • Incubate at room temperature for 1 hr. • Wash plate with plate washer (4 washes x 100 μL/wash) using compound dilution buffer, leaving 25 μL in each well.
• Transfer plates to FLIPR for compound addition. Single addition plate of 2× agonist (25 μL). Control wells for agonists will be in column 23 and 24. […] Negative control wells received buffer+vehicle (25 μL). Functional Expression of α6β2β3 nAChR

**Q.** What does the source list for `CO[C@H]1CC=C2CCN3CCC4=C(CC(=O)OC4)[C@]23C1` [DHbE]?
**A.** IC100 DHBe (α6/3β2β3 nAChR [1]): 10 µM; effect on nicotine-evoked calcium flux (FLIPR signal) (α6/3β2β3 nAChR [1]): decreases the nicotine-evoked calcium flux in a dose-dependent manner

**Q.** How did the “effect on nicotine-evoked calcium flux (FLIPR signal)” value (α6/3β2β3 nAChR [1]) turn out when `CCN1C[C@]2(COC(=O)c3ccccc3N3C(=O)C[C@H](C)C3=O)CC[C@H](OC)[C@@]34[C@@H]5C[C@H]6[C@H](OC)[C@@H]5[C@](O)(C[C@@H]6OC)[C@](O)([C@@H](OC)[C@H]23)[C@@H]14` [MLA] was run?
**A.** Its value is “decreases the nicotine-evoked calcium flux in a dose-dependent manner”.

**Q.** For `CNC1(C)C2CCC(C2)C1(C)C` (stereo not shown) [mecamylamine], which “effect on nicotine-evoked calcium flux (FLIPR signal)” value (α6/3β2β3 nAChR [1]; transfected HEK293T cells incubated at 30° C. for 24-48 hour, antagonist at various concentration 3 min, then nicotine EC80 3.5 min, FIGS. 2A-2D) is on record?
**A.** The value was “decreases the nicotine-evoked calcium flux in a dose-dependent manner”.

**Q.** What does the source list for `CN1CCCC1c1cccnc1` (stereo not shown) [nicotine]?
**A.** nicotine EC80 (α6/3β2β3 nAChR [2]; 2nd addition in concentration response curve experiment): 236 nm; EC80 nicotine (α6/3β2β3 nAChR [2]; concentration used as agonist challenge in antagonist protocol): 236 nM

**Q.** How did the “effect on nicotine-evoked calcium flux (FLIPR signal)” value (α6/3β2β3 nAChR [1]) turn out when “α-conotoxin MII (GCCSNPVCHLEHSNLC; ends and bridges not checked; cysteine pairing not given here; UniProt P56636 49-64, looked up)” was run?
**A.** Its value is “decreases the nicotine-evoked calcium flux in a dose-dependent manner”.
